Experimental data published in US11591323B2, “Muscarinic agonists as non-steroidal and non-opioid analgesics and methods of use thereof” (Barry University, priority 2019, dated 2023).
Read-outs that look alike come from different tables or passages of the source.

Experiments:
M3 muscarinic receptor = M3 muscarinic receptor (Homo sapiens, UniProt P20309); experiment: stimulation of cAMP, M3 CHO cells (M3Gs); format: cell-based; design: host or cells: CHO cells, stably transfected
Procedure: Since activation of phospholipase C (PLC) via M2 and M4 receptors is weak, cells were transferred with G15 G-protein to facilitate coupling.
To determine level of cAMP, cells in suspension were pre-incubated for 1 h with 0.4 μM [^3H]adenine, washed, and incubated for 10 min in the presence of isobutylmethylxanthine and 10 μM forskolin. […] Incubation was ended by addition of 0.2 ml of 2.5 M HCl to the samples. Samples were applied to alumina columns (1.5 g of alumina per column), washed with 2 ml ammonium acetate (pH=7.0) and eluted from columns with 4 ml ammonium acetate and measured by liquid scintillation spectrometry. […] The incubation was stopped by addition of 0.5 ml of chloroform methanol HCl mixture (2:1:0.1). After separation of water and organic phases, 0.6 ml of water phase was applied to Dowex columns (1.5 g of Dowex per column), washed by 20 ml of 60 mM ammonium formate/5 mM sodium borate buffer and eluted from columns with 4 ml of 1M ammonium formate/0.1 formic acid buffer and measured by liquid scintillation spectrometry.
Measurements of the production of cAMP and inositol phosphates: Levels of second messengers cAMP and inositol phosphates were determined in radiochemical chromatography assays as described previously. To determine level of cAMP, cells in suspension were pre-incubated for 1 h with 0.4 μM [^3H]adenine, washed, and incubated for 10 min in the presence of isobutylmethylxanthine and 10 μM forskolin. […] Incubation was ended by addition of 0.2 ml of 2.5 M HCl to the samples. Samples were applied to alumina columns (1.5 g of alumina per column), washed with 2 ml ammonium acetate (pH=7.0) and eluted from columns with 4 ml ammonium acetate and measured by liquid scintillation spectrometry. […] For this purpose, new CHO cell lines stably expressing promiscuous G15 G-protein and M2 or M4 receptor were generated by transfection with pCMV/hygro vector and hygromycin selection. To determine the rate of formation of inositol phosphates IPX, suspended cells were pre-incubated with 0.1 μM [^3H]myo-inositol for 60 min, washed, and incubated with 10 mM LiCl for 15 min. […] The incubation was stopped by addition of 0.5 ml of chloroform methanol HCl mixture (2:1:0.1). After separation of water and organic phases, 0.6 ml of water phase was applied to Dowex columns (1.5 g of Dowex per column), washed by 20 ml of 60 mM ammonium formate/5 mM sodium borate buffer and eluted from columns with 4 ml of 1M ammonium formate/0.1 formic acid buffer and measured by liquid scintillation spectrometry.
For bi-phasic response, curves were inhibitory and stimulatory phase were fitted separately. Operational Model of Functional Agonism
[formula] where y is functional response at concentration of tested compound x, EMAX is maximal response of the system, KA is equilibrium dissociation constant and nH is slope factor. Eq. 5 was fitted to data from functional experiments. Eq. 5 was fitted to data by the two-step procedure described earlier. […] In the second step, Eq. 5 with EMAX fixed to the value determined in the first step was fitted to individual experimental data sets. Relative Intrinsic Activity
Muscarinic receptors are also able to stimulate non-preferential signalling pathways.

M4 muscarinic receptor = molecular target: T1, M4 muscarinic receptor (Homo sapiens, UniProt P08173); experiment: accumulation of cAMP at PTX-treated CHO cells expressing M4; format: cell-based; design: host or cells: CHO cells, stably transfected; settings: forskolin-stimulated and basal, in words
T1 sequence (P08173 1-479): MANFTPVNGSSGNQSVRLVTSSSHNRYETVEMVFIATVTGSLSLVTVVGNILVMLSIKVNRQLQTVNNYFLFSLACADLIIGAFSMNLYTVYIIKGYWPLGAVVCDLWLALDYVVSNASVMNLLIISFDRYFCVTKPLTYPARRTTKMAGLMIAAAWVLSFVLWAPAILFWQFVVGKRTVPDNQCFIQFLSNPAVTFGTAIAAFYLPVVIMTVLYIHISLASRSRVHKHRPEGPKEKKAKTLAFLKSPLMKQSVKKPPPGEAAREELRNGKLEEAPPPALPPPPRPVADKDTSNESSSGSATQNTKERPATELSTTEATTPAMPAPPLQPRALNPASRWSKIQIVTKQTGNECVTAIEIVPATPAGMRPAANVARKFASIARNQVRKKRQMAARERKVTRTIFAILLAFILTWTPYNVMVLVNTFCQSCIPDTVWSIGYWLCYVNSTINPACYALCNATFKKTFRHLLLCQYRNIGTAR
Procedure: (§1) To exclude the possibility that activation of the non-preferential Gs pathway was obscured by activation of the preferential Gi/o pathway, accumulation of cAMP was measured in CHO cells expressing M2 or M4 receptors where Gi/o G-proteins were inactivated by pertussis toxin (PTX) treatment (FIG. 4).
Cell culture and membrane preparation: Chinese hamster ovary (CHO) cells stably transfected with the genes of individual human variants of muscarinic receptors were purchased from Missouri S&T cDNA Resource Center (Rolla, Mo., USA). Fresh primary cell culture of smooth muscle cells (SMC) from rat aorta prepared as previously described was kindly provided by Dr. Lucie Bačáková. Primary culture of SMCs was grown to confluency in 75 cm^2 flasks in Dulbecco's modified Eagle's medium supplemented with 10% fetal bovine serum. Up to 6-times, 2 million of cells were sub-cultured. […]
Measurements of the production of cAMP and inositol phosphates: Levels of second messengers cAMP and inositol phosphates were determined in radiochemical chromatography assays as described previously. […] Samples were applied to alumina columns (1.5 g of alumina per column), washed with 2 ml ammonium acetate (pH=7.0) and eluted from columns with 4 ml ammonium acetate and measured by liquid scintillation spectrometry. […] After separation of water and organic phases, 0.6 ml of water phase was applied to Dowex columns (1.5 g of Dowex per column), washed by 20 ml of 60 mM ammonium formate/5 mM sodium borate buffer and eluted from columns with 4 ml of 1M ammonium formate/0.1 formic acid buffer and measured by liquid scintillation spectrometry.
as §1, with “[…]” for “Gs”, “11). […]” for “4).”

[1] = M3Gs (↑cAMP), Table 8, relative to carbachol

Chain of M3 muscarinic receptor (P20309 whole entry): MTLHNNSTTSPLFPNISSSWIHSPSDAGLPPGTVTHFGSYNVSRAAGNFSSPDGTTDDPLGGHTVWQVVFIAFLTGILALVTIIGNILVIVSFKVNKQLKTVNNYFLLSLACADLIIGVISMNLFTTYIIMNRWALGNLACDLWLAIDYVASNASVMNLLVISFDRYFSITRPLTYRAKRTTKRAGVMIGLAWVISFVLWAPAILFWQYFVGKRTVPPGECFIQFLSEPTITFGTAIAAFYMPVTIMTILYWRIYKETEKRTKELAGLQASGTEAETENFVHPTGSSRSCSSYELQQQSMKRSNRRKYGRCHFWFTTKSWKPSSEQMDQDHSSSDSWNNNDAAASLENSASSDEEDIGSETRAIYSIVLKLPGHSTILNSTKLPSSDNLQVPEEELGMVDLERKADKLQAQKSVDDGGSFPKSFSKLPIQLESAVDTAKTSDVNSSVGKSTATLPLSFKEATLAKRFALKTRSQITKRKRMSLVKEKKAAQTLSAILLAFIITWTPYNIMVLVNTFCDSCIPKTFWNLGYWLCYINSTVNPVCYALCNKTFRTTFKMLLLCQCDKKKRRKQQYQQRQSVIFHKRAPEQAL

C[N+]1(Cc2cccs2)CC=CCC1.[I-] (centres unmarked) [Compound 7A, 1-methyl-1-[(thiophen-2-yl)methyl]-1,2,3,6-tetrahydropyridin-1-ium iodide]
RAi (M3 muscarinic receptor; [1]): 0
change in accumulation of cAMP (M4 muscarinic receptor): did not change cAMP levels

O=C1CCCN1CC#CCN1CCCC1 [oxotremorine, reference compound]
EC50 (M3 muscarinic receptor): 2.63 µM
E′MAX (M3 muscarinic receptor): 1.9 ± 0.1 fold increase
Kd (M3 muscarinic receptor): 3.98 µM
RAi (M3 muscarinic receptor): 4.23 ± 0.28
Δlog(τ/KA) (M3 muscarinic receptor): −0.63 ± 0.06
τ (M3 muscarinic receptor): 0.48 ± 0.05

C[N+](C)(C)CCOC(N)=O [carbachol, reference compound]
change in accumulation of cAMP (M4 muscarinic receptor): about two-fold increase

C1=CCN(Cc2cccs2)CC1.Cl [Compound 6A, 1-[(thiophen-2-yl)methyl]-1,2,3,6-tetrahydropyridin-1-ium chloride]
RAi (M3 muscarinic receptor; [1]): 0
change in accumulation of cAMP (M4 muscarinic receptor): did not change cAMP levels
